Drawing on PubChem BioAssay AID248 (DTP/NCI, 2004), this text covers T/C for 24 compounds.

For the experiment, the system named is L1210 leukemia ip in BDF1 mice, survival T/C. The experiment in a line: NCI In Vivo Anticancer Drug Screen. Data for tumor model L1210 Leukemia (intraperitoneal) in B6D2F1 (BDF1) mice. The settings on record: endpoint: mean survival time, higher = longer survival. In outline: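 Each compound was tested against a transplantable tumor grown in mice. The endpoint was survival, with treated animals benchmarked against vehicle controls as a simple ratio.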

The mark [1] stands for this setting: dose: 100.0 mg/kg/injection, schedule: Q01DX001 (ip), vehicle: Klucel (hydroxypropylcellulose) (HPC).
The mark [2] stands for this setting: dose: 200.0 mg/kg/injection, schedule: Q01DX001 (ip), vehicle: Klucel (hydroxypropylcellulose) (HPC).
Where [3] appears, read: dose: 100.0 mg/kg/injection, schedule: Q04DX003 (ip), vehicle: saline with Tween-80.
Where [4] appears, read: dose: 200.0 mg/kg/injection, schedule: Q04DX003 (ip), vehicle: saline with Tween-80.
The mark [5] stands for this setting: dose: 400.0 mg/kg/injection, schedule: Q04DX003 (ip), vehicle: saline with Tween-80.
Setting [6] is: dose: 100.0 mg/kg/injection, schedule: Q01DX Z (ip), vehicle: methylcellulose (MC).
[7] abbreviates: dose: 200.0 mg/kg/injection, schedule: Q01DX Z (ip), vehicle: methylcellulose (MC).
Where [8] appears, read: dose: 100.0 mg/kg/injection, schedule: Q01DX009 (ip), vehicle: saline with Tween-80.
The mark [9] stands for this setting: dose: 200.0 mg/kg/injection, schedule: Q01DX009 (ip), vehicle: saline with Tween-80.
Where [10] appears, read: dose: 100.0 mg/kg/injection, schedule: Q04DX003 (ip), vehicle: saline.
[11] abbreviates: dose: 100.0 mg/kg/injection, schedule: Q04DX003 (ip), vehicle: Klucel (hydroxypropylcellulose) (HPC).
Setting [12] is: dose: 200.0 mg/kg/injection, schedule: Q01DX009 (ip), vehicle: Klucel (hydroxypropylcellulose) (HPC).
[13] abbreviates: dose: 200.0 mg/kg/injection, schedule: Q04DX003 (ip), vehicle: Klucel (hydroxypropylcellulose) (HPC).
[14] abbreviates: dose: 400.0 mg/kg/injection, schedule: Q01DX009 (ip), vehicle: Klucel (hydroxypropylcellulose) (HPC).
[15] abbreviates: dose: 400.0 mg/kg/injection, schedule: Q04DX003 (ip), vehicle: Klucel (hydroxypropylcellulose) (HPC).
[16] abbreviates: dose: 400.0 mg/kg/injection, schedule: Q01DX009 (ip), vehicle: saline with Tween-80.
[17] abbreviates: dose: 100.0 mg/kg/injection, schedule: Q01DX001 (ip), vehicle: saline.
Where [18] appears, read: dose: 200.0 mg/kg/injection, schedule: Q01DX001 (ip), vehicle: saline.
[19] abbreviates: dose: 400.0 mg/kg/injection, schedule: Q01DX001 (ip), vehicle: saline.
[20] abbreviates: dose: 50.0 mg/kg/injection, schedule: Q01DX001 (ip), vehicle: saline.
The mark [21] stands for this setting: dose: 100.0 mg/kg/injection, schedule: Q01DX009 (ip), vehicle: Klucel (hydroxypropylcellulose) (HPC).

Several values for one entry are separate records, joined by “and”; a condition that tells them apart may be missing. Identical values can stand only once. Toxic doses and inconclusive results are not listed.

Consider `N/N=C1/CCc2ccccc21`, for which the T/C was 90 % of control under setting [1] and 112 % of control under setting [2].
Turning to `CC1(C)C2CC=C(N3CCCCC3)C1C2` (configuration not stated), the T/C is 96 % of control under setting [3], 96 % of control under setting [4] and 98 % of control under setting [5].
As for `O=c1[nH]c(=S)[nH]c(=S)[nH]1`, the T/C is 97 % of control under setting [6] and 104 % of control under setting [7].
`CC(=O)OC(c1ccccc1)c1ccccn1` (configuration not stated): the T/C reads like this: (dose: 50.0 mg/kg/injection, schedule: Q01DX009 (ip), vehicle: saline with Tween-80) 105 % of control; under setting [8], 98 % of control; under setting [9], 94 % of control.
`C1CCN(CCC2CCNCC2)C1`: the T/C reads like this: (dose: 25.0 mg/kg/injection, schedule: Q01DX009 (ip), vehicle: saline) 106 % of control; (dose: 25.0 mg/kg/injection, schedule: Q04DX003 (ip), vehicle: saline) 97 % of control; (dose: 50.0 mg/kg/injection, schedule: Q01DX009 (ip), vehicle: saline) 95 % of control; (dose: 50.0 mg/kg/injection, schedule: Q04DX003 (ip), vehicle: saline) 97 % of control; (dose: 100.0 mg/kg/injection, schedule: Q01DX009 (ip), vehicle: saline) 106 % of control; under setting [10], 96 % of control and 100 % of control.
On to `COc1cc(C)ccc1C(=O)CCCC(=O)O`, for which the T/C under setting [1] is 106 % of control; the T/C under setting [11] was 105 % of control; the T/C under setting [2] was 98 % of control; the T/C under setting [12] was 97 % of control; the T/C under setting [13] is 102 % of control; the T/C (dose: 400.0 mg/kg/injection, schedule: Q01DX001 (ip), vehicle: Klucel (hydroxypropylcellulose) (HPC)) is 98 % of control. Also, the T/C was 98 % of control under setting [14] and 103 % of control under setting [15].
Take `Cc1ccccc1OC(=O)c1ccccc1`: the T/C under setting [3] is 107 % of control, the T/C under setting [4] was 104 % of control and the T/C under setting [5] is 104 % of control.
With `Cc1ccc(S(=O)(=O)Nc2ccc(Cl)c(Cl)c2)cc1`, the T/C is, setting by setting: under setting [11], 97 % of control; under setting [13], 96 % of control; under setting [15], 94 % of control.
Consider `CCOC(=O)CCN(CC(=O)OCC)C(C)C`, for which the T/C was 100 % of control under setting [8]; 100 % of control under setting [3]; 106 % of control under setting [9]; 95 % of control under setting [4]; 110 % of control under setting [16]; 103 % of control under setting [5].
For `O=C(O)c1cc(-c2ccc(Cl)cc2)nc2c(-c3ccccc3)cccc12`, the T/C under setting [3] is 95 % of control, the T/C under setting [4] was 95 % of control and the T/C under setting [5] was 90 % of control.
As for `N#CNC(=S)S`, the T/C under setting [10] is 105 % of control; the T/C (dose: 200.0 mg/kg/injection, schedule: Q04DX003 (ip), vehicle: saline) is 93 % of control; the T/C (dose: 400.0 mg/kg/injection, schedule: Q04DX003 (ip), vehicle: saline) is 104 % of control.
As to `Oc1ccc(N=Cc2ccccc2O)cc1`, the T/C by setting is: under setting [17], 90 % of control; (dose: 116.0 mg/kg/injection, schedule: Q01DX015 (ip), vehicle: steriod suspending solution) 108 % of control; (dose: 175.0 mg/kg/injection, schedule: Q01DX015 (ip), vehicle: steriod suspending solution) 123 % of control; (dose: 178.0 mg/kg/injection, schedule: Q01DX001 (ip), vehicle: steriod suspending solution) 100 % of control; under setting [18], 207 % of control; (dose: 267.0 mg/kg/injection, schedule: Q01DX001 (ip), vehicle: steriod suspending solution) 103 % of control. In addition, the T/C (dose: 270.0 mg/kg/injection, schedule: Q01DX Z (ip), vehicle: carboxymethylcellulose (CMC)) is 104 % of control; the T/C under setting [19] is 260 % of control; the T/C (dose: 400.0 mg/kg/injection, schedule: Q01DX001 (ip), vehicle: steriod suspending solution) is 101 % of control; the T/C (dose: 400.0 mg/kg/injection, schedule: Q01DX Z (ip), vehicle: carboxymethylcellulose (CMC)) was 115 % of control; the T/C (dose: 600.0 mg/kg/injection, schedule: Q01DX001 (ip), vehicle: steriod suspending solution) was 105 % of control.
Take `COc1cccc(CC(=O)c2c[nH]c3ccccc23)c1`: the T/C is, setting by setting: under setting [20], 104 % of control; under setting [17], 101 % of control; under setting [18], 98 % of control; under setting [19], 101 % of control.
Take `CC(C(=O)O)C(C)(O)C(C)(C)C` (configuration not stated): the T/C runs as follows: (dose: 100.0 mg/kg/injection, schedule: Q04DX002 (ip), vehicle: saline) 104 % of control; (dose: 200.0 mg/kg/injection, schedule: Q04DX002 (ip), vehicle: saline) 97 % of control; (dose: 400.0 mg/kg/injection, schedule: Q04DX002 (ip), vehicle: saline) 108 % of control.
For the compound `c1ccc2c(c1)ccc1c[s+]ccc12`, the T/C was 103 % of control (dose: 100.0 mg/kg/injection, schedule: Q04DX003 (ip), vehicle: acetone) and 103 % of control (dose: 200.0 mg/kg/injection, schedule: Q04DX003 (ip), vehicle: acetone).
`Cc1nc(N)nc(Nc2ccc(CCO)cc2)c1Br`: the T/C by setting is: under setting [6], 103 % of control; under setting [7], 98 % of control.
Turning to `Cc1cccc(C)c1NC(=O)N(Cc1ccccc1)Cc1ccccc1`, the T/C runs as follows: under setting [21], 98 % of control; under setting [12], 112 % of control; under setting [14], 110 % of control.
Turning to `CC(C)OC(=O)C(C)OC(=O)OCCOCCOC(=O)OC(C)C(=O)OC(C)C` (configuration not stated), the T/C is 96 % of control under setting [17], 100 % of control under setting [18] and 100 % of control under setting [19].
Regarding `CCO/N=C1\C(C)(C)C(C)(C)C(C)(C)C1(C)SS(=O)(=O)O` (configuration not stated), the T/C reads like this: (dose: 75.0 mg/kg/injection, schedule: Q04DX002 (ip), vehicle: saline) 101 % of control; (dose: 150.0 mg/kg/injection, schedule: Q04DX002 (ip), vehicle: saline) 96 % of control; (dose: 300.0 mg/kg/injection, schedule: Q04DX002 (ip), vehicle: saline) 93 % of control.
As to `CCOC(=O)CC(C)(C)C1CC1`, the T/C reads like this: under setting [20], 91 % of control; under setting [17], 96 % of control; under setting [18], 96 % of control; under setting [19], 94 % of control.
On to `Cc1c(C)c(NC(=O)/C=C/C(=O)O)c(C)c(C)c1NC(=O)/C=C\C(=O)O`, for which the T/C is 104 % of control under setting [8], 96 % of control under setting [9] and 102 % of control under setting [16].
With `Cn1nc2c(N)ncnc2c1C1OC(CO)C(O)C1O` (configuration not stated), the T/C was 116 % of control (dose: 100.0 mg/kg/injection, schedule: Q01DX005 (ip), vehicle: saline) and 106 % of control (dose: 200.0 mg/kg/injection, schedule: Q01DX005 (ip), vehicle: saline).
For the compound `Cc1cccc(C2NC(=S)N3C(c4cccc(C)c4)NC(=S)N23)c1` (configuration not stated), the T/C is, setting by setting: (dose: 100.0 mg/kg/injection, schedule: Q01DX009 (ip), vehicle: gum acacia) 100 % of control; (dose: 100.0 mg/kg/injection, schedule: Q04DX003 (ip), vehicle: gum acacia) 88 % of control; (dose: 200.0 mg/kg/injection, schedule: Q01DX009 (ip), vehicle: gum acacia) 100 % of control; (dose: 200.0 mg/kg/injection, schedule: Q04DX003 (ip), vehicle: gum acacia) 88 % of control; (dose: 400.0 mg/kg/injection, schedule: Q01DX009 (ip), vehicle: gum acacia) 91 % of control; (dose: 400.0 mg/kg/injection, schedule: Q04DX003 (ip), vehicle: gum acacia) 87 % of control.
`Clc1ccc2noc(-c3ccccc3)c2c1`: the T/C runs as follows: under setting [17], 104 % of control; under setting [21], 95 % of control; under setting [11], 100 % of control; under setting [18], 100 % of control; under setting [12], 102 % of control; under setting [13], 94 % of control. In addition, the T/C under setting [19] is 98 % of control, the T/C under setting [14] was 95 % of control and the T/C under setting [15] was 90 % of control.
